{
  "source": "patent US7745575B1",
  "about": "(Cellpep Pharma Inc., priority 2004, dated 2010)",
  "note": "Bridge positions count the residues as written; N and C are the ends. Peptide text beside a SMILES is read from it. * marks the point of attachment. Pentanoyl = CCCCC(=O)*",
  "data": [
    {"test": "toxicity in vivo, LD50 after intracerebroventricular injection", "conditions": "mouse, icv or intrathecal, 20 g C57/BL6 mice", "procedure": "Groups of six to eight mice per dose were injected with 5 μl peptide solution containing 0.1% (w/v) bovine serum albumin and 0.9% (w/v) NaCl. The LD50 values are set out in Table 5.", "units": {"LD50": "µg/kg"}, "values": [
      {"compound": "CC[C@H](C)[C@@H]1NC(=O)[C@H](CCCCN)NC(=O)[C@@H](NC(=O)[C@@H](N)CCCCN)CSSC[C@@H]2NC(=O)[C@H](CCCCN)NC(=O)CNC(=O)[C@H](Cc3ccccc3)NC(=O)[C@H](CCCNC(=N)N)NC(=O)[C@H](CCSC)NC(=O)CNC(=O)[C@H](C)NC(=O)[C@H](CC(=O)O)NC(=O)[C@H](CCCCN)NC(=O)[C@@H]3CSSC[C@@H](C(=O)N[C@H](C(=O)N4CCC[C@H]4C(=O)N[C@@H](CCCCN)C(=O)O)[C@@H](C)O)NC(=O)[C@H](Cc4c[nH]cn4)NC(=O)[C@H](CSSC[C@H](NC(=O)[C@H](CCC(N)=O)NC(=O)[C@H](CCCNC(=N)N)NC(=O)[C@H](CO)NC1=O)C(=O)N[C@@H](CC(C)C)C(=O)N[C@@H](CCCCN)C(=O)N1CCC[C@H]1C(=O)N3)NC(=O)[C@H](CCCCN)NC(=O)CNC(=O)[C@H](CC(N)=O)NC(=O)[C@H](CCSC)NC2=O", "note": "(H-KCKISRQCLKPCKDAGMRFGKCMNGKCHCTPK-OH; disulfide 2-22, 8-27, 12-29)", "LD50": 6.5},
      {"compound": "CC[C@H](C)[C@@H]1NC(=O)[C@H](CCCCN)NC(=O)[C@@H](NC(=O)[C@H](CCCCN)NC(=O)[C@@H](NC(=O)[C@@H](N)CC(N)=O)C(C)C)CSSC[C@@H]2NC(=O)[C@H](CCCCN)NC(=O)CNC(=O)[C@H](Cc3ccccc3)NC(=O)[C@H](CCCNC(=N)N)NC(=O)[C@H](CCSC)NC(=O)CNC(=O)[C@H](C)NC(=O)[C@H](CC(=O)O)NC(=O)[C@H](CCCCN)NC(=O)[C@@H]3CSSC[C@@H](C(=O)N[C@H](C(=O)N4CCC[C@H]4C(=O)N[C@@H](CCCCN)C(=O)O)[C@@H](C)O)NC(=O)[C@H](Cc4c[nH]cn4)NC(=O)[C@H](CSSC[C@H](NC(=O)[C@H](CCC(N)=O)NC(=O)[C@H](CCCNC(=N)N)NC(=O)[C@H](CO)NC1=O)C(=O)N[C@@H](CC(C)C)C(=O)N[C@@H](CCCCN)C(=O)N1CCC[C@H]1C(=O)N3)NC(=O)[C@H](CCCCN)NC(=O)CNC(=O)[C@H](CC(N)=O)NC(=O)[C@H](CCSC)NC2=O", "note": "(H-NVKCKISRQCLKPCKDAGMRFGKCMNGKCHCTPK-OH; disulfide 4-24, 10-29, 14-31)", "LD50": 5},
      {"compound": "CC[C@H](C)[C@@H]1NC(=O)[C@H](CCCCN)NC(=O)[C@@H](NC(=O)[C@H](CCCCN)NC(=O)[C@@H](NC(=O)[C@H](CC(N)=O)NC(=O)[C@@H](NC(=O)[C@@H](NC(=O)[C@@H](N)[C@@H](C)O)[C@@H](C)CC)[C@@H](C)CC)C(C)C)CSSC[C@@H]2NC(=O)[C@H](CCCCN)NC(=O)CNC(=O)[C@H](Cc3ccccc3)NC(=O)[C@H](CCCNC(=N)N)NC(=O)[C@H](CCSC)NC(=O)CNC(=O)[C@H](C)NC(=O)[C@H](CC(=O)O)NC(=O)[C@H](CCCCN)NC(=O)[C@@H]3CSSC[C@@H](C(=O)N[C@H](C(=O)N4CCC[C@H]4C(=O)N[C@@H](CCCCN)C(=O)O)[C@@H](C)O)NC(=O)[C@H](Cc4c[nH]cn4)NC(=O)[C@H](CSSC[C@H](NC(=O)[C@H](CCC(N)=O)NC(=O)[C@H](CCCNC(=N)N)NC(=O)[C@H](CO)NC1=O)C(=O)N[C@@H](CC(C)C)C(=O)N[C@@H](CCCCN)C(=O)N1CCC[C@H]1C(=O)N3)NC(=O)[C@H](CCCCN)NC(=O)CNC(=O)[C@H](CC(N)=O)NC(=O)[C@H](CCSC)NC2=O", "note": "(H-TIINVKCKISRQCLKPCKDAGMRFGKCMNGKCHCTPK-OH; disulfide 7-27, 13-32, 17-34)", "LD50": 3},
      {"compound": "CC[C@H](C)[C@@H]1NC(=O)[C@H](CCCCN)NC(=O)[C@@H](NC(=O)[C@H](CCCCN)NC(=O)[C@@H](NC(=O)[C@H](CC(N)=O)NC(=O)[C@@H](NC(=O)[C@@H](NC(=O)[C@@H](N)C(C)C)[C@@H](C)CC)[C@@H](C)CC)C(C)C)CSSC[C@@H]2NC(=O)[C@H](CCCCN)NC(=O)CNC(=O)[C@H](Cc3ccccc3)NC(=O)[C@H](CCCNC(=N)N)NC(=O)[C@H](CCSC)NC(=O)CNC(=O)[C@H](C)NC(=O)[C@H](CC(=O)O)NC(=O)[C@H](CCCCN)NC(=O)[C@@H]3CSSC[C@@H](C(=O)N[C@H](C(=O)N4CCC[C@H]4C(=O)N[C@@H](CCCCN)C(N)=O)[C@@H](C)O)NC(=O)[C@H](Cc4c[nH]cn4)NC(=O)[C@H](CSSC[C@H](NC(=O)[C@H](CCC(N)=O)NC(=O)[C@H](CCCNC(=N)N)NC(=O)[C@H](CO)NC1=O)C(=O)N[C@@H](CC(C)C)C(=O)N[C@@H](CCCCN)C(=O)N1CCC[C@H]1C(=O)N3)NC(=O)[C@H](CCCCN)NC(=O)CNC(=O)[C@H](CC(N)=O)NC(=O)[C@H](CCSC)NC2=O", "note": "(H-VIINVKCKISRQCLKPCKDAGMRFGKCMNGKCHCTPK-NH2; disulfide 7-27, 13-32, 17-34)", "LD50": 4.5},
      {"compound": "CC[C@H](C)[C@@H]1NC(=O)[C@H](CCCCN)NC(=O)[C@@H](NC(=O)[C@H](CCCCN)NC(=O)[C@@H](NC(=O)[C@H](CC(N)=O)NC(=O)[C@@H](NC(=O)[C@@H](NC(=O)[C@@H](N)C(C)C)[C@@H](C)CC)[C@@H](C)CC)C(C)C)CSSC[C@@H]2NC(=O)[C@H](CCCCN)NC(=O)CNC(=O)[C@H](Cc3ccccc3)NC(=O)[C@H](CCCNC(=N)N)NC(=O)[C@H](CCSC)NC(=O)CNC(=O)[C@H](C)NC(=O)[C@H](CC(=O)O)NC(=O)[C@H](CCCCN)NC(=O)[C@@H]3CSSC[C@@H](C(=O)N[C@H](C(=O)N4CCC[C@H]4C(=O)N[C@@H](CCCCN)C(=O)O)[C@@H](C)O)NC(=O)[C@H](Cc4c[nH]cn4)NC(=O)[C@H](CSSC[C@H](NC(=O)[C@H](CCC(N)=O)NC(=O)[C@H](CCCNC(=N)N)NC(=O)[C@H](CO)NC1=O)C(=O)N[C@@H](CC(C)C)C(=O)N[C@@H](CCCCN)C(=O)N1CCC[C@H]1C(=O)N3)NC(=O)[C@H](CCCCN)NC(=O)CNC(=O)[C@H](CC(N)=O)NC(=O)[C@H](CCSC)NC2=O", "note": "(H-VIINVKCKISRQCLKPCKDAGMRFGKCMNGKCHCTPK-OH; disulfide 7-27, 13-32, 17-34)", "LD50": 3},
      {"compound": "CCCCC(=O)NCC(=O)N[C@H](C(=O)N[C@H](C(=O)N[C@H](C(=O)N[C@@H](CC(N)=O)C(=O)N[C@H](C(=O)N[C@@H](CCCCN)C(=O)N[C@H]1CSSC[C@@H]2NC(=O)[C@H](CCCCN)NC(=O)CNC(=O)[C@H](Cc3ccccc3)NC(=O)[C@H](CCCNC(=N)N)NC(=O)[C@H](CCSC)NC(=O)CNC(=O)[C@H](C)NC(=O)[C@H](CC(=O)O)NC(=O)[C@H](CCCCN)NC(=O)[C@@H]3CSSC[C@@H](C(=O)N[C@H](C(=O)N4CCC[C@H]4C(=O)N[C@@H](CCCCN)C(=O)O)[C@@H](C)O)NC(=O)[C@H](Cc4c[nH]cn4)NC(=O)[C@H](CSSC[C@H](NC(=O)[C@H](CCC(N)=O)NC(=O)[C@H](CCCNC(=N)N)NC(=O)[C@H](CO)NC(=O)[C@H]([C@@H](C)CC)NC(=O)[C@H](CCCCN)NC1=O)C(=O)N[C@@H](CC(C)C)C(=O)N[C@@H](CCCCN)C(=O)N1CCC[C@H]1C(=O)N3)NC(=O)[C@H](CCCCN)NC(=O)CNC(=O)[C@H](CC(N)=O)NC(=O)[C@H](CCSC)NC2=O)C(C)C)[C@@H](C)CC)[C@@H](C)CC)C(C)C", "note": "(Pentanoyl-GVIINVKCKISRQCLKPCKDAGMRFGKCMNGKCHCTPK-OH; disulfide 8-28, 14-33, 18-35)", "LD50": 16}
    ]}
  ]
}
